Columns and labels:
[1] = Hydrolysis of TPP-IOA by cytosol and mitochondrial fractions of mouse embryonic cells (HPLC); format: in vitro ADME
Protocol: Incubations were carried out in 0.1 M phosphate buffer (pH 7.0) for 25 min at 37° C.; and reaction was stopped with CH3CN denatured proteins were centrifuged, and the supernatant was subjected to HPLC analysis. The volume of samples was 1 ml.
To test this, assessments of esterase activity of mitochondria and cytosolic fractions isolated from mouse embryonic cells were performed based on HPLC measurements of TPP-IOA (FIG. 4). […] Thus, both TPP-IOA and its de-esterifed form, IOA, could be present in mitochondria of mouse embryonic cells.

mouse embryonic cells [2] = assay: γ-Irradiation induced apoptosis in mouse embryonic cells (PS externalization Annexin V/PI, caspase 3/7, cyt c release); format: cell-based; settings: for necrotic cells (PI-positive, Annexin V-positive) after irradiation and treatment / apoptotic cells (PI-negative, Annexin V-positive) after irradiation and treatment: 10 Gy; for necrotic cells (PI-positive, Annexin V-positive) after irradiation and treatment: irradiated only 12.9%; for apoptotic cells (PI-negative, Annexin V-positive) after irradiation and treatment: irradiated only 28.9%
Protocol: Mouse embryonic cells were seeded on a 35 mm dish at a cell density of 5×10^4/dish, and allowed to attach overnight. The cells were γ-irradiated at a dose of 10 Gy using a Shepherd model 143-45A irradiator (J.L. Shepherd & Associates, CA). Ten min after irradiation, different concentrations of TPP-ISA or TPP-IOA (2.5 and 5 μM) were added and cells were incubated at 37° C. in 5% CO2 for 48 h. Then, cells were harvested for measuring phosphatidylserine externalization by an Annexin V/PI kit and caspase 3/7 activity using a Caspase-Glo® 3/7 Assay kit. Data are means±S.D., n=3. *p<0.01 vs. irradiated only cells.
Phosphatidylserine externalization was determined by an Annexin V-FITC apoptosis detection kit (Biovision) according to the manufacturer's instructions.
Caspase-3/7 activity was measured using a luminescence Caspase-Glo 3/7 assay kit (Promega) according to the manufacturer's instructions.
Cells were collected after 48 h post-irradiation incubation and resuspended in lysis buffer containing 0.05% digitonin for 4 min on ice. Supernatants were collected after centrifugation for 10 min at 10,000 g. Equal amounts of protein were subject to 15% SDS-PAGE, transferred onto a nitrocellulose membrane, and probed with antibodies against cyt c (clone 7H, 8.2; C12, BD Pharmingen) or actin (Novus) (loading control) followed by horseradish peroxidase-coupled detection. The protein band profile was analysed by densitometry using Labworks image acquisition and analysis software (UVP).

SH-SY5Y cells = assay: Oxygen-glucose deprivation (OGD) of SH-SY5Y cells, viability by WST-1 assay; format: cell-based, human; settings: for fold change in viability compared to control cells: 24 hours of recovery after 8 hour OGD, mean±SEM
Protocol: SH-SY5Y cells were harvested from 100 mm diameter culture plates once 70-80% confluence was reached, and were then seeded on 96-well plates at a density of 3.0×10^4 cells per well in normal growth media. The cells were then incubated overnight (approximately 16 hours) under normal growth conditions to allow for attachment to plates. During this time, DMEM (supplemented with 25 mM HEPES, 4 mM L-glutamine, and 584 mg/L […]) with no glucose or serum to be used for OGD was incubated on a culture plate in the 3% oxygen, 5% carbon dioxide, 37° C. incubator to reduce the oxygen levels within the media. In the following morning, this plate of media was placed inside of a custom-built anoxic chamber that was continuously pumped with 95% nitrogen-5% carbon dioxide gas mixture from Praxair Canada (St. Catharines, ON, Canada) to further reduce/eliminate the amount of oxygen present in the media. 0.2% oxygen level within the chamber was reached within approximately 10 minutes, and the plate of media was incubated for 30 minutes under these conditions. After this period, the growth media on the 96-well plates of SH-SY5Y cells was removed, and carefully replaced with the de-oxygenated DMEM containing no glucose or serum. The plates of cells were then incubated in the anoxia chamber at 0.2% oxygen for 8 hours, continuously pumped with the 95% nitrogen-5% carbon dioxide gas mixture. An oxygen sensor was kept inside of the chamber, and the 0.2% oxygen level was monitored and maintained by a Roxy-1 universal regulator/controller (Sable Systems Int., Las Vegas, Nev., USA). Throughout the duration of the media de-oxygenation and OGD, the anoxic chamber was kept inside of a 37° C. […]
After the 8 hour period of OGD, the glucose/serum-free DMEM was carefully removed from the wells, and replaced with normal growth media containing TPP-IOA. The cells were incubated at their normal growth conditions, and viability was assessed after 24 and 48 hours of recovery with the use of the WST-1 cell proliferation assay.
For measurements, premixed WST-1 cell proliferation reagent was added to the wells of cells (ratio of 1:10 with growth media) cultured on 96-well flat bottomed plates. […] The plate was then shaken thoroughly for 1 minute on a plate shaker, and then absorbance at 450 nm, with a reference wavelength of 650 nm, was measured using a microplate reader (BioTek, Winooski, Vt., USA).
For data analysis, the background control and reference wavelength absorbance readings were subtracted from the 450 nm reading for each sample. The average absorbance reading for the 0 μM TPP-IOA treatment was then set equal to 1, and all sample readings were divided by the mean absorbance of the 0 μM TPP-IOA treatment to obtain a measure of fold change in viability compared to the control.

mouse embryonic cells [3] = assay: Clonogenic survival of mouse embryonic cells after γ-irradiation; format: cell-based; settings: 2.5 μM added 30 min post γ-irradiation; single-hit multi-target model; untreated 1.33±0.08
Protocol: Cells were plated in 35-mm dishes with 2 ml culture medium at the appropriate density (between 100 and 1000 cells per dish). TPP-ISA (2.5 μM) or TPP-IOA (2.5 μM) was added to the cell culture 30 min post γ-irradiation. Medium containing TPP-ISA or TPP-IOA was replaced with fresh complete culture medium after 4 hrs. Colonies were fixed and stained with 0.25% crystal violet and 10% formalin (35% v/v) in 80% methanol for 30 min after a 7-day incubation, and those with >50 cells were scored as survivors. The surviving fraction was calculated as the plating efficiency (=number of colonies counted/number of cells seeded×100%) of samples relative to that of control. The data were fitted to a single-hit multi-target model. D0—the dose needed to reduce cell surviving fraction to 37% (1/e)—was estimated from the curves fitted to evaluate the radiomitigative effects of TPP-ISA and TPP-IOA.

Question: With `CCCCCCC(C/C=C\CCCCCCCC(=O)OCCC[P+](c1ccccc1)(c1ccccc1)c1ccccc1)n1ccnc1.[Br-]` (centres unmarked) [TPP-IOA] as the compound, how does the “hydrolysis rate in mitochondria” value ([1]; 1 mg protein/ml, pH 7.0, 37° C.) read?
Answer: comparable to that in the cytosolic fraction

Question: And the “hydrolysis of the ester bond by endogenous esterases” value ([1]; mitochondria and cytosol of mouse embryonic cells)?
Answer: hydrolysis of TPP-IOA takes place in both mitochondria and the cytosol

Question: And the “necrotic cells (PI-positive, Annexin V-positive) after irradiation and treatment” value (mouse embryonic cells [2])?
Answer: 8.2%

Question: What about the “apoptotic cells (PI-negative, Annexin V-positive) after irradiation and treatment” value (mouse embryonic cells [2]) of the same compound?
Answer: 14.8%

Question: And the “decrease in the number of apoptotic cells” value (mouse embryonic cells [2]; versus irradiated only cells)?
Answer: twofold

Question: What about the “reduction in the number of necrotic cells” value (mouse embryonic cells [2]; versus irradiated only cells) of the same compound?
Answer: 1.6 fold

Question: What about the “fold change in viability compared to control cells” value (shortened to “fold change in viability”) (SH-SY5Y cells; 2.5 μM, p=0.017) of the same compound?
Answer: 1.192±0.058 fold

Question: And the “fold change in viability” value (SH-SY5Y cells; 5 μM, p=0.0094)?
Answer: 1.356±0.074 fold

Question: And the “fold change in viability” value (SH-SY5Y cells; 10 μM, non-significant p=0.0955)?
Answer: 1.179±0.038 fold

Question: What about the “viability after 48 hours of incubation” value (SH-SY5Y cells; 48 hours of recovery after 8 hour OGD) of the same compound?
Answer: no significant improvements in viability

Question: What about the “D0, the dose needed to reduce cell surviving fraction to 37% (1/e)” value (mouse embryonic cells [3]) of the same compound?
Answer: 1.71±0.05

Question: For `CCCCCCC(CCCCCCCCCCC(=O)OCCC[P+](c1ccccc1)(c1ccccc1)c1ccccc1)n1ccnc1.[Br-]` (centres unmarked) [TPP-ISA], which “necrotic cells (PI-positive, Annexin V-positive) after irradiation and treatment” value (mouse embryonic cells [2]) is on record?
Answer: 7.8%

Question: And the “apoptotic cells (PI-negative, Annexin V-positive) after irradiation and treatment” value (mouse embryonic cells [2])?
Answer: 13.9%

Question: And the “D0, the dose needed to reduce cell surviving fraction to 37% (1/e)” value (mouse embryonic cells [3])?
Answer: 1.67±0.06

From patent US9365597B2, “Mitochondria-targeted inhibitors of cytochrome c peroxidase for protection from apoptosis” (Brock University, priority 2011, dated 2016)
